The text below walks through data of patent US7582068B2, “Occlusion resistant hydrocephalic shunt” (Medtronic, Inc., priority 2004, dated 2009).

This assay has as its system tissue in-growth of the catheter lumen. Briefly: Tissue in-growth scoring of catheters explanted from rats after 3 months (SEM). It is filed as in vivo, rat. The following applies: peritoneal and ventricular catheters in rats, MPA compared to drug-free control, dual drug compared to single drug loading. As for the experimental part: Micophenolic acid (MPA) was loaded into ventricular and peritoneal catheter, design of which is described in the example 16. MPA was loaded into ventricular catheter by solvent impregnation using 50 mg/ml MPA in THF followed by drug loading into a silicone plug with 10 wt % drug concentration. Peritoneal sample was loaded by solvent impregnation using 12.5 mg/ml MPA solution in THF followed by drug loading into a plug using 2.5 mg/ml MPA in silicone rubber. Samples were implanted into rat such that the ventricular sample was placed in a lateral ventricle of the rat and the peritoneal samples was implanted into rat peritoneal cavity. In total 6 ventricular and 6 peritoneal samples were implanted into 6 rats. 12 drug-free catheters of the same configuration were implanted in the other 6 rats as controls. After 3 months samples were explanted and the tissue in-growth was scored between 1 and 5 on a basis of SEM photographs of longitudinally split catheters. […]
Ventricular and peritoneal samples were loaded with RAPA and MPA according to the following procedure: catheters were impregnated with 50 mg/ml of MPA solution in THF followed by plugging with 5 wt % RAPA in silicone Samples were implanted in rats and analyzed as described in the Example 17.

On to `COc1c(C)c2c(c(O)c1C/C=C(\C)CCC(=O)O)C(=O)OC2` [MPA, Mycophenolic acid], for which the “Effect on tissue proliferation (in words)” value is “decrease of tissue proliferation”.
